US20260184707A1, “PHARMACEUTICAL COMPOUNDS FOR THE TREATMENT OF COMPLEMENT MEDIATED DISORDERS” (ALEXION PHARMACEUTICALS, INC., priority 2022, published 2026)

Target: T1, Human complement C1s enzyme (Homo sapiens, UniProt P09871)
T1 construct: purified from human serum, Complement Technology, Inc; purchased Complement Technology, Inc; host or cells: human serum (plasma-derived native protein)
T1 sequence (P09871 438-688 limits assumed): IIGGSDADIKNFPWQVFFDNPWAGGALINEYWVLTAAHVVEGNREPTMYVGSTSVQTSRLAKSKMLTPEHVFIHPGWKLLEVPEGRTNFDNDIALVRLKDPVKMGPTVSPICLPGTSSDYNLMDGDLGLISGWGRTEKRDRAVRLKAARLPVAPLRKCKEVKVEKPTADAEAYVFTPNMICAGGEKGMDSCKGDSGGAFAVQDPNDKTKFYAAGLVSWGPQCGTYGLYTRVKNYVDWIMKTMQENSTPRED
T1 sequence (P09871 16-437 partner limits assumed): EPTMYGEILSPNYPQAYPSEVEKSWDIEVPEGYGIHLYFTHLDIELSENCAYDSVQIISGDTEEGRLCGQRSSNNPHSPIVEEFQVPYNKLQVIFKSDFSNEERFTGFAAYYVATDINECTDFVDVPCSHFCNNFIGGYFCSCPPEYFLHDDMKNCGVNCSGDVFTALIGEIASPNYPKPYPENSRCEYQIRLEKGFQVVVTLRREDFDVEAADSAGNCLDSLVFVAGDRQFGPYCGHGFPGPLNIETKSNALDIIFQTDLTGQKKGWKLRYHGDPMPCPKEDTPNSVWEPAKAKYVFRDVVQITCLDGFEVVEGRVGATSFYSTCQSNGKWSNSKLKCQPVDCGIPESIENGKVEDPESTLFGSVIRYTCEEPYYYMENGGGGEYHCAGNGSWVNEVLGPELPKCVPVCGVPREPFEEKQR
Assay: Human C1s enzyme assay
Format: biochemical
Conditions: human complement C1s enzyme 1.16 nM, substrate Z-L-Lys-SBzl, A405; read-out: IC50 (Stars)
In short: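 Thioesterase activity followed colorimetrically (DTNB, A405, 30-s reads) using 100 μM Z-L-Lys-SBzl substrate. Enzyme, human serum-derived C1s at 1.16 nM final, was incubated with test compound for 5 min, room temperature, pH 7.5 Tris buffer with 1 M NaCl. Rate-versus-concentration data fitted by nonlinear regression for IC50.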

Structure (SMILES): O=C(Cn1c(-c2ccccc2)cnc(NC(=O)c2ccc(Oc3ccccc3)cc2)c1=O)NCc1cc2cnccc2[nH]1 [Compound 177, N-(4-(2-(((1H-pyrrolo[3,2-c]pyridin-2-yl)methyl)amino)-2-oxoethyl)-3-oxo-5-phenyl-3,4-dihydropyrazin-2-yl)-4-phen-oxybenzamide]
- IC50: < 100 nM

Structure (SMILES): O=C(Cn1c(-c2ccccc2)cnc(NC(=O)c2ccc3c(c2)-c2ccccc2C3(F)F)c1=O)NCc1cc2cnccc2[nH]1 [Compound 179, N-(4-(2-(((1H-pyrrolo[3,2-c]pyridin-2-yl)methyl)amino)-2-oxoethyl)-3-oxo-5-phenyl-3,4-dihydropyrazin-2-yl)-9,9-difluoro-9H-fluorene-3-carbox-amide]
- IC50: < 100 nM

Structure (SMILES): CC1(c2ccc(CCCNc3cnc(-c4ccccc4)n(CC(=O)NCc4cc5cnccc5[nH]4)c3=O)cc2)COC1 [Compound 180, N-((1H-pyrrolo[3,2-c]pyridine-2-yl)methyl)-2-(5-((3-(4-(3-methyloxetan-3-yl)phenyl)propyl)amino)-6-oxo-2-phenylpyrimidin-1(6H)-yl)acetamide]
- IC50: < 100 nM

Structure (SMILES): O=C(Cn1c(-c2ccccc2)ncc(N2Cc3ccccc3C2)c1=O)NCc1cc2cnccc2[nH]1 [Compound 184, N-((1H-pyrrolo[3,2-c]pyridine-2-yl)methyl)-2-(5-(isoindolin-2-yl)-6-oxo-2-phenylpyrimidin-1(6H)-yl)acetamide]
- IC50: > 1000 nM

Structure (SMILES): CO[C@@H]1CO[C@H]2[C@@H]1OC[C@H]2Oc1ccc(-c2ncc(NCCCc3ccccc3)c(=O)n2CC(=O)NCc2cc3cnccc3[nH]2)cc1 [Compound 189, N-((1H-pyrrolo[3,2-c]pyridine-2-yl)methyl)-2-(2-(4-(((3R,3aR,6R,6aR)-6-methoxyhexahydrofuro[3,2-b]furan-3-yl)oxy)phenyl)-6-oxo-5-((3-phenylpropyl)amino)pyrimidin-1(6H)-yl)acetamide]
- IC50: < 100 nM

Structure (SMILES): O=C(Cn1c(-c2ccccc2)ncc(NCCCO[C@@H]2CO[C@H]3[C@@H]2OC[C@H]3O)c1=O)NCc1cc2cnccc2[nH]1 [Compound 190, N-((1H-pyrrolo[3,2-c]pyridine-2-yl)methyl)-2-(5-((3-(((3R,3aR,6R,6aR)-6-hydroxyhexahydrofuro[3,2-b]furan-3-yl)oxy)propyl)amino)-6-oxo-2-phenylpyrimidin-1(6H)-yl)acetamide]
- IC50: < 100 nM

Structure (SMILES): CO[C@@H]1CO[C@H]2[C@@H]1OC[C@H]2Oc1ccc(CCCNc2cnc(-c3ccccc3)n(CC(=O)NCc3cc4cnccc4[nH]3)c2=O)cc1 [Compound 192, N-((1H-pyrrolo[3,2-c]pyridine-2-yl)methyl)-2-(5-((3-(4-(((3R,3aR,6R,6aR)-6-methoxyhexahydrofuro[3,2-b]furan-3-yl)oxy)phenyl)propyl)amino)-6-oxo-2-phenylpyrimidin-1(6H)-yl)acetamide]
- IC50: < 100 nM

Structure (SMILES): O=C(Cn1c(-c2ccccc2)ncc(NCCCc2ccc(OC3CS(=O)(=O)C3)cc2)c1=O)NCc1cc2cnccc2[nH]1 [Compound 193, N-((1H-pyrrolo[3,2-c]pyridine-2-yl)methyl)-2-(5-((3-(4-((1,1-dioxidothietan-3-yl)oxy)phenyl)propyl)amino)-6-oxo-2-phenylpyrimidin-1(6H)-yl) acetamide]
- IC50: < 100 nM

Structure (SMILES): CS(=N)(=O)c1ccc(-c2ncc(NCCCc3ccccc3)c(=O)n2CC(=O)NCc2cc3cnccc3[nH]2)cc1 (centres unmarked) [Compound 200, N-((1H-pyrrolo[3,2-c]pyridine-2-yl)methyl)-2-(2-(4-(S-methylsulfonimidoyl)phenyl)-6-oxo-5-((3-phenylpropyl)amino)pyrimidin-1(6H)-yl)acetamide]
- IC50: < 100 nM

Structure (SMILES): O=C(Cn1c(-c2ccccc2)ncc(NC(=O)c2ccc3c(c2)oc2ccccc23)c1=O)NCc1cc2cnccc2[nH]1 [Compound 203, N-(1-(2-(((1H-pyrrolo[3,2-c]pyridin-2-yl)methyl)amino)-2-oxoethyl)-6-oxo-2-phenyl-1,6-dihydropyrimidin-5-yl)dibenzo [b,d]furan-3-carboxamide]
- IC50: < 100 nM

Structure (SMILES): O=C(Cn1c(-c2ccccc2)ncc(NC(=O)c2ccc3c(c2)C(F)(F)c2ccccc2-3)c1=O)NCc1cc2cnccc2[nH]1 [Compound 204, N-(1-(2-(((1H-pyrrolo[3,2-c]pyridin-2-yl)methyl)amino)-2-oxoethyl)-6-oxo-2-phenyl-1,6-dihydropyrimidin-5-yl)-9,9-difluoro-9H-fluorene-2-carbox-amide]
- IC50: < 100 nM

Structure (SMILES): O=C(Cn1c(-c2ccccc2)ncc(NC(=O)c2coc(-c3cccc(F)c3)n2)c1=O)NCc1cc2cnccc2[nH]1 [Compound 205, N-(1-(2-(((1H-pyrrolo[3,2-c]pyridine-2-yl)methyl)amino)-2-oxoethyl)-6-oxo-2-phenyl-1,6-dihydropyrimidin-5-yl)-2-(3-fluorophenyl)oxazole-4-carboxamide]
- IC50: < 100 nM

Structure (SMILES): O=C(Cn1c(-c2ccccc2)ncc(NC(=O)c2ccc(-c3ccccc3)o2)c1=O)NCc1cc2cnccc2[nH]1 [Compound 206, N-(1-(2-(((1H-pyrrolo[3,2-c]pyridin-2-yl)methyl)amino)-2-oxoethyl)-6-oxo-2-phenyl-1,6-dihydropyrimidin-5-yl)-5-phen-ylfuran-2-carboxamide]
- IC50: < 100 nM

Structure (SMILES): O=C(Cc1cc(NCCCc2ccccc2)cnc1-c1ccccc1)NCc1cc2cnccc2[nH]1 [Compound 207, N-((1H-pyrrolo[3,2-c]pyridine-2-yl)methyl)-2-(2-phenyl-5-((3-phenylpropyl)amino)146yridine-3-yl)acetamide]
- IC50: > 1000 nM

Structure (SMILES): O=C(Cn1c(-c2ccccc2)ncc(NC(=O)c2nc(-c3ccccc3)cs2)c1=O)NCc1cc2cnccc2[nH]1 [Compound 208, N-(1-(2-(((1H-pyrrolo[3,2-c]pyridin-2-yl)methyl)amino)-2-oxoethyl)-6-oxo-2-phenyl-1,6-dihydropyrimidin-5-yl)-4-phen-ylthiazole-2-carboxamide]
- IC50: < 100 nM

Structure (SMILES): O=C(Cn1c(-c2ccccc2)ncc(NC(=O)c2csc(-c3ccccc3)n2)c1=O)NCc1cc2cnccc2[nH]1 [Compound 209, N-(1-(2-(((1H-pyrrolo[3,2-c]pyridin-2-yl)methyl)amino)-2-oxoethyl)-6-oxo-2-phenyl-1,6-dihydropyrimidin-5-yl)-2-phen-ylthiazole-4-carboxamide]
- IC50: < 100 nM

Structure (SMILES): O=C(Cn1c(-c2ccccc2)ncc(NC(=O)c2cc(-c3ccccc3)cs2)c1=O)NCc1cc2cnccc2[nH]1 [Compound 210, N-(1-(2-(((1H-pyrrolo[3,2-c]pyridin-2-yl)methyl)amino)-2-oxoethyl)-6-oxo-2-phenyl-1,6-dihydropyrimidin-5-yl)-4-phen-ylthiophene-2-carboxamide]
- IC50: < 100 nM

Structure (SMILES): COc1cccc(-c2nc(C(=O)Nc3cnc(-c4ccccc4)n(CC(=O)NCc4cc5cnccc5[nH]4)c3=O)co2)c1 [Compound 211, N-(1-(2-(((1H-pyrrolo[3,2-c]pyridine-2-yl)methyl)amino)-2-oxoethyl)-6-oxo-2-phenyl-1,6-dihydropyrimidin-5-yl)-2-(3-methoxyphenyl)oxazole-4-carboxamide]
- IC50: < 100 nM

Structure (SMILES): O=C(Cn1c(-c2ccccc2)ncc(Nc2ccc(F)cc2)c1=O)NCc1cc2cnccc2[nH]1 [Compound 212, N-((1H-pyrrolo[3,2-c]pyridin-2-yl)methyl)-2-(5-((4-fluoro-phenyl)amino)-6-oxo-2-phen-ylpyrimidin-1(6H)-yl)acet-amide]
- IC50: < 100 nM

Structure (SMILES): COc1ccccc1-c1ccc(C(=O)Nc2cnc(-c3ccccc3)n(CC(=O)NCc3cc4cnccc4[nH]3)c2=O)cc1 [Compound 213, N-(1-(2-(((1H-pyrrolo[3,2-c]pyridin-2-yl)methyl)amino)-2-oxoethyl)-6-oxo-2-phenyl-1,6-dihydropyrimidin-5-yl)-2′-methoxy-[1,1′-biphenyl]-4-carboxamide]
- IC50: < 100 nM

Structure (SMILES): O=C(Cn1c(-c2ccccc2)ncc(NC(=O)c2ccc(-c3ccccc3F)cc2)c1=O)NCc1cc2cnccc2[nH]1 [Compound 214, N-(1-(2-(((1H-pyrrolo[3,2-c]pyridin-2-yl)methyl)amino)-2-oxoethyl)-6-oxo-2-phenyl-1,6-dihydropyrimidin-5-yl)-2′-fluoro-[1,1′-biphenyl]-4-carboxamide]
- IC50: < 100 nM

Structure (SMILES): O=C(Cn1c(-c2ccccc2)ncc(NC(=O)c2ccc(Oc3ccccc3)s2)c1=O)NCc1cc2cnccc2[nH]1 [Compound 215, N-(1-(2-(((1H-pyrrolo[3,2-c]pyridine-2-yl)methyl)amino)-2-oxoethyl)-6-oxo-2-phenyl-1,6-dihydropyrimidin-5-yl)-5-phenoxythiophene-2-carboxamide]
- IC50: < 100 nM

Structure (SMILES): O=C(Cn1c(-c2ccc(N3CCOCC3)cc2)ncc(NCc2ccc3oc4ccccc4c3c2)c1=O)NCc1cc2cnccc2[nH]1 [Compound 216, N-((1H-pyrrolo[3,2-c]pyridin-2-yl)methyl)-2-(5-((dibenzo [b,d]furan-2-ylmethyl)amino)-2-(4-morpholinophenyl)-6-oxo-pyrimidin-1(6H)-yl)acetamide]
- IC50: < 100 nM
